What was measured:
[1] = test system: Trypanosoma brucei brucei; assay: Trypanocidal activity against Trypanosoma brucei brucei 427 bloodstream form assessed as inhibition of parasite proliferation after 72 hr by Lilit Alamar Blue method; format: functional, organism-based
[2] = Selectivity index, ratio of LC50 for Artemia salina larvae to IC50 for Trypanosoma brucei brucei 427 bloodstream form
[3] = Toxicity against Artemia salina (brine shrimp) larvae assessed as mortality after 24 hr; format: organism-based; conditions: in vivo
[4] = Trypanosoma brucei, 427, 72 h, read-out: IC50

NC(=S)N/N=C\c1cccc(Cl)c1
IC50 [1, 4]: 164 µM

NC(=S)N/N=C\c1ccccc1Cl
IC50 [1, 4]: 220 µM

NC(=S)N/N=C\c1cc(Cl)ccc1O
IC50 [1, 4]: 45.6 µM

C/C(=N/NC(=S)Nc1ccccc1)c1ccc2ccccc2c1
IC50 [1]: ND(Insoluble)

C=C(C)C1CC=C(C)/C(=N/NC(N)=S)C1 (stereo not drawn) [CARVONE-THIOSEMICARBAZONE]
IC50 [1, 4]: 39.7 µM

C/C(=N/N=C(\N)S)C12CC3CC(CC(C3)C1)C2
Ratio LC50/IC50 [2]: 14.2 | IC50 [1, 4]: 8.38 µM | LC50 at 24 h [3]: 119 µM

C/C(=N/NC(=S)Nc1ccccc1)c1ccc(Br)cc1
Ratio LC50/IC50 [2]: 25.9 | IC50 [1, 4]: 5.19 µM | LC50 at 24 h [3]: 134 µM

Cc1ccccc1/C=N\NC(N)=S
IC50 [1, 4]: 222 µM

NC(=S)N/N=C\c1ccccc1O
IC50 [1, 4]: 170 µM

C/C(=N/NC(N)=S)c1ccc2ccccc2c1 [ACETONAPHTHONE-THIOSEMICARBAZONE]
Ratio LC50/IC50 [2]: 50 | IC50 [1, 4]: 9.62 µM | LC50 at 24 h [3]: 481 µM

NC(S)=NN=C(Cc1ccccc1)Cc1ccccc1
IC50 [1, 4]: 147 µM

NC(=S)N/N=C\CCc1ccccc1
IC50 [1, 4]: 260 µM

C/C(=N/NC(N)=S)c1ccccc1 [ACETOPHENONE-THIOSEMICARBAZONE]
IC50 [1, 4]: 212 µM

NC(=S)N/N=C\c1ccc(Cl)cc1
IC50 [1, 4]: 82.6 µM

C/C(=N/NC(N)=S)c1ccc(Br)cc1
IC50 [1, 4]: 26.9 µM

COc1cc(/C(C)=N\NC(N)=S)cc(OC)c1OC
IC50 [1]: Not Active

NC(=S)N/N=C\c1cccc(Br)c1
IC50 [1, 4]: 136 µM

COc1ccc(/C=N\NC(N)=S)cc1
IC50 [1, 4]: 259 µM

C/C(=N/NC(N)=S)c1cccc(Br)c1
IC50 [1, 4]: 70.4 µM

C/C(=N/N=C(\N)S)c1ccc(Cl)cc1 [P-CHLOROPHENYL(METHYL)THIOSEMICARBAZONE]
IC50 [1, 4]: 11.1 µM

COc1ccc(/C(C)=N\NC(N)=S)cc1
IC50 [1, 4]: 91.1 µM

NC(=S)N/N=C\c1ccccc1 [BENZALDEHYDE-THIOSEMICARBAZONE]
IC50 [1, 4]: 444 µM

C/C(=N/NC(=S)Nc1ccccc1)c1ccc(Cl)cc1
Ratio LC50/IC50 [2]: 110 | IC50 [1, 4]: 3.97 µM | LC50 at 24 h [3]: 438 µM

COc1ccc(/C(C)=N\NC(N)=S)cc1OC
IC50 [1]: Not Active

CN(C)c1ccc(/C=C/C=N\NC(N)=S)cc1
IC50 [1, 4]: 17.7 µM

C/C(=N/NC(N)=S)c1ccccc1Cl
IC50 [1, 4]: 199 µM

NC(=S)NN=C(c1ccccc1)c1ccccc1 [BENZOPHENONE-THIOSEMICARBAZONE]
IC50 [1, 4]: 68.3 µM

CC/C(=N/NC(N)=S)c1ccc(OC)cc1
IC50 [1, 4]: 132 µM

Cc1ccc(/C=N\NC(N)=S)cc1
IC50 [1, 4]: 124 µM

NC(=S)N/N=C\C=C\c1ccccc1
IC50 [1, 4]: 76.3 µM

Reference: ChEMBL document CHEMBL3046454, “Structureactivity relationship study of thiosemicarbazones on an African trypanosome: Trypanosoma brucei brucei” (Med Chem Res, 2013)
